# Measurements from ChEMBL document CHEMBL3882391, “Substituted tricyclic compounds as protein kinase inhibitors” (2008).
# Activity calls are given as the source filed them. The calls are words filed in the database; no cut-off is given here.
# Legend:
# [1] = biological target: T1, Aurora kinase A (Homo sapiens) (UniProt O14965); test: Inhibition of human recombinant aurora-2 kinase expressed in Sf9 cells at 20 uM using kemptide as substrate by kinase-Glo luciferase assay
# T1 sequence (whole entry): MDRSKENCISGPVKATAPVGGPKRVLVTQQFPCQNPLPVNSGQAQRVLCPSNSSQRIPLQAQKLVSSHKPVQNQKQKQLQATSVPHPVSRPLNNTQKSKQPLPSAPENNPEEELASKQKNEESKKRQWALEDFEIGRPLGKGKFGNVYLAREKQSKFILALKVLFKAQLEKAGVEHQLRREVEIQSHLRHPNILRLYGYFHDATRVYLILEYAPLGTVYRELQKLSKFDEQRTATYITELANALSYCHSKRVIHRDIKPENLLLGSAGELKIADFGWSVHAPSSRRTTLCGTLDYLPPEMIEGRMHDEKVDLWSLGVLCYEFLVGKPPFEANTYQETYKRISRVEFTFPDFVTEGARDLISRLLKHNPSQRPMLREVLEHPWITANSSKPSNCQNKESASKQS
# MDA-MB-435 = test: Inhibition of cell proliferation of human MDA-MB-435 cells at 0.1 to 1000 uM after 4 days by MTS assay; format: functional, cell-based
# Caco-2 = test: Inhibition of cell proliferation of human Caco2 cells at 0.1 to 1000 uM after 4 days by MTS assay; format: functional, cell-based
# PANC-1 = test: Inhibition of cell proliferation of human PANC1 cells at 0.01 to 1000 uM after 4 days by MTS assay; format: functional, cell-based
# COLO 320 = test: Inhibition of cell proliferation of human COLO320 cells at 0.1 to 1000 uM after 4 days by MTS assay; format: functional
# MCF7 = test: Inhibition of cell proliferation of human MCF7 cells at 0.1 to 1000 uM after 4 days by MTS assay; format: functional, cell-based
# T47D = test: Inhibition of cell proliferation of human T47D cells at 0.1 to 1000 uM after 4 days by MTS assay; format: functional, cell-based
# A2780 = test: Inhibition of cell proliferation of human A2780 cells at 0.1 to 1000 uM after 4 days by MTS assay; format: functional, cell-based
# MIA PaCa-2 [2] = test: Inhibition of cell proliferation of human MIAPaCa2 cells at 3 to 300 uM after 48 hrs by hematocytometry; format: functional, cell-based
# MIA PaCa-2 [3] = test: Inhibition of cell proliferation of human MIAPaCa2 cells at 0.01 to 1000 uM after 4 days by MTS assay; format: functional, cell-based
# ASPC1 = test: Inhibition of cell proliferation of human AsPC1 cells at 0.1 to 1000 uM after 4 days by MTS assay; format: functional, cell-based
compound,measurement,setting,value
O=S(=O)(Nc1ncccn1)c1ccc(Nc2ncnc3c2sc2ncccc23)cc1,inhibition,[1],Active
COc1cc2[nH]c3ncnc(N4CCN(C(=S)Nc5ccc(S(=O)(=O)Nc6ncccn6)cc5)CC4)c3c2cc1OC,inhibition,MDA-MB-435,Active
same,inhibition,Caco-2,Active
same,inhibition,PANC-1,Active
same,inhibition,COLO 320,Active
same,inhibition,MCF7,Active
same,inhibition,T47D,Active
same,inhibition,A2780,Active
same,inhibition,MIA PaCa-2 [2],Active
same,inhibition,MIA PaCa-2 [3],Active
same,inhibition,ASPC1,Active
COc1cc2ncnc(N3CCN(C(=S)Nc4ccc(S(=O)(=O)Nc5ncccn5)cc4)CC3)c2cc1OC,inhibition,[1],Active
COc1cc2ncnc(Nc3cccc(Br)c3)c2cc1OC,inhibition,[1],Active
O=S(=O)(Nc1ncccn1)c1ccc(Nc2ncnc3c2oc2ccccc23)cc1,inhibition,[1],Active
